Experimental data published in patent publication US6514997B2, “Antipicornaviral compounds and compositions, their pharmaceutical uses, and materials for their synthesis” (Agouron Pharmaceuticals, Inc., priority 1999, dated 2003).

Columns and labels:
echovirus 9 (ECHO-9) = test: Anti-echoviral cell culture assay (EC50), ECHO-9; type: cell-based; conditions: Enterovirus B
MRC-5 cells = test: Cytotoxicity (CC50) in uninfected MRC-5 cells, XTT dye reduction; type: cell-based, human
Outline: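 MRC-5 cells in MEM with 10% FBS, infected at m.o.i. 0.003 or 0.004 or mock-infected, seeded 1×10^4 cells/well with compound for four days. Protection and cytotoxicity read by XTT/PMS formazan at 450/650 nm. TI = CC50/EC50.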

[1] = Cytotoxicity (CC50) in mock-infected H1-HeLa cells, XTT dye reduction; type: cell-based, human; conditions: human, H1-HeLa cells; for CC50: line of CVB2; for CC50 at 1 day: line of CVB3
Outline: (§1)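 H1-HeLa cells mock-infected, read by XTT/PMS formazan at 450/650 nm.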

H1-HeLa cells = test: as above; type: cell-based, human
Outline: as §1

[2] = tested on: Echovirus type 11 (ECHO 11); test: Anti-echoviral cell culture assay (XTT, EC50), ECHO 11; type: cell-based, echovirus 11 in MRC-5 cells; conditions: Enterovirus B
Method: Anti-Echoviral and Anti-Enteroviral Cell Culture Assays
Echovirus type 11 (ECHO 11) was purchased from ATCC (Rockville, Md.). Virus stocks were propagated and antiviral assays were performed in MRC-5 cells (ATCC). Cells were grown in minimal essential medium with 10% fetal bovine serum (Life Technologies, Gaithersburg, Md.). The ability of the compounds of this invention to protect cells against ECHO 11 infection was measured by the XTT dye reduction method (Weislow et al., J. Natl. Cancer Inst. (1989), vol. 81, 577-586). MRC-5 cells were infected with ECHO 11 at an m.o.i. of 0.003 or 0.004, respectively, or mock-infected with medium only. Infected or uninfected cells were added at 1×10^4 cells per well and incubated with appropriate concentrations of compound. Four days later, XTT/PMS was added to test plates, and the amount of formazan produced was quantified spectrophotometrically at 450/650 nm. […] The therapeutic index (TI) was calculated by dividing the CC50 by the EC50. Activity of the compounds against enterovirus type 70 (EV 70) may be measured by the same assay as described above in this section. Enterovirus type 70 (EV 70) may be obtained from the American Type Culture Collection ATCC (Rockville, Md.).

echovirus 6 (ECHO-6) = test: Anti-echoviral cell culture assay (EC50), ECHO-6; type: cell-based; conditions: Enterovirus B
[3] = tested on: Coxsackievirus type A-21 (CAV-21); test: Anticoxsackieviral cell culture assay (XTT, EC50), CAV-21; type: cell-based, coxsackievirus A-21 in H1-HeLa cells; conditions: Coxsackievirus
Method: Anticoxsackieviral Cell Culture Assay:
Coxsackievirus types A-21 (CAV-21) and B3 (CVB3) were purchased from American Type Culture Collection (ATCC, Rockville, Md.). Virus stocks were propagated and antiviral assays were performed in H1-HeLa cells (ATCC). Cells were grown in minimal essential medium with 10% fetal bovine serum (Life Technologies, Gaithersburg, Md.). The ability of the compounds of this invention to protect cells against either CAV-21 or CVB3 infection was measured by the XTT dye reduction method. This method is described in Weislow et al., J. Natl. Cancer Inst. (1989), vol. 81, 577-586. H1-HeLa cells were infected with CAV-21 or CVB3 at a multiplicity of infection (m.o.i.) of 0.025 or 0.075, respectively, or mock-infected with medium only. H1-HeLa cells were plated at 4×10^4 cells per well in a 96-well plate and incubated with appropriate concentrations of the test compound. One day (CVB3) or two days (CAV-21) later, XTT/PMS was added to test plates and the amount of formazan produced was quantified spectrophotometrically at 450/650 nm. […] The therapeutic index (TI) was calculated by dividing the CC50 by the EC50.

coxsackievirus B5 (CVB5) = test: Anticoxsackieviral cell culture assay (EC50), CVB5; type: cell-based; conditions: Enterovirus B
[4] = uninfected (mock-infected), line of CAV-21

| SMILES | EC50 (echovirus 9 (ECHO-9)) [nM] | CC50 at 2 days ([1]; mock-infected, line of HRV-14) [µM] | CC50 at 2 days [1, 4] [µM] | CC50 ([1]; uninfected (mock-infected)) [µM] | CC50 at 1 day ([1]; uninfected (mock-infected)) [µM] | CC50 (H1-HeLa cells; line of CVB5) [µM] | CC50 (H1-HeLa cells; line of HRV-2) [µM] | CC50 (H1-HeLa cells; line of HRV-3) [µM] | CC50 (H1-HeLa cells; line of HRV-9) [µM] | CC50 (H1-HeLa cells; line of HRV-11) [µM] | CC50 (H1-HeLa cells; line of HRV-13) [µM] | CC50 (H1-HeLa cells; line of HRV-16) [µM] | CC50 (H1-HeLa cells; line of HRV-19) [µM] | CC50 (H1-HeLa cells; line of HRV-23) [µM] | CC50 (H1-HeLa cells; line of HRV-25) [µM] | CC50 (H1-HeLa cells; line of HRV-39) [µM] | CC50 (H1-HeLa cells; line of HRV-78) [µM] | CC50 (H1-HeLa cells; line of HRV-Hanks) [µM] | EC50 [3] [nM] | EC50 (coxsackievirus B5 (CVB5)) [nM] | also measured |
| --- | --- | --- | --- | --- | --- | --- | --- | --- | --- | --- | --- | --- | --- | --- | --- | --- | --- | --- | --- | --- | --- |
| C#CC[C@@H](C(=O)N[C@H](/C=C/C(=O)OCC)C[C@@H]1CCNC1=O)n1cccc(NC(=O)c2cc(C)on2)c1=O [Compound 31, trans-(2′S,3″″S,4S)-4-(2′-{3″-[(5′″-Methyl-isoxazole-3′″-carbonyl)amino]-2″-oxo-2″H-pyridin-1″-yl}pent-4′-ynoyl-amino)-5-(2″″-oxopyrrolidin-3″″-yl)pent-2-enoic Acid Ethyl Ester] | 12 | > 10 | > 10 | > 10 | > 10 | > 10 | > 10 | > 10 | > 10 | > 10 | > 10 | > 10 | > 10 | > 10 | > 10 | > 10 | > 10 | > 10 | 161 | 47 | CC50 (MRC-5 cells; line of ECHO-9): > 10 µM; CC50 (MRC-5 cells; line of ECHO-11): > 10 µM; CC50 (H1-HeLa cells; line of HRV-1A): > 10 µM; CC50 (H1-HeLa cells; line of HRV-10): > 10 µM; CC50 (H1-HeLa cells; line of HRV-87): > 10 µM; EC50 [2]: 13 nM; EC50 (echovirus 6 (ECHO-6)): 21 nM |
| C#CC[C@@H](C(=O)N[C@H](/C=C/C(=O)OC1CCC1)C[C@@H]1CCNC1=O)n1cccc(NC(=O)c2cc(C)on2)c1=O [Compound 53, trans-(2′S,3′″″S,4S)-4-[2′-(3″-{[1′″-(5″″-Methylisoxazol-3″″-yl)methanoyl]amino}-2′″-oxo-2′″H-pyridin-1′″-yl)pent-4″-ynoylamino]-5-(2′″″-oxopyrrolidin-3′″″-yl)pent-2-enoic Acid Cyclobutyl Ester] | 26 | > 10 | > 10 | > 10 | > 10 | > 10 | > 10 | > 10 | > 10 | > 10 | > 10 | > 10 | > 10 | > 10 | > 10 | > 10 | > 10 | > 10 | 476 | 157 | CC50 (H1-HeLa cells; line of HRV-1A): > 10 µM; CC50 (H1-HeLa cells; line of HRV-10): > 10 µM |
| C#CC[C@@H](C(=O)N[C@H](/C=C/C(=O)OC(C)(C)C)C[C@@H]1CCNC1=O)n1cccc(NC(=O)c2cc(C)on2)c1=O [Compound 41, trans-(2′S,3′″″S,4S)-4-[2′-(3″-{[1′″-(5″″-Methylisoxazol-3″″-yl)methanoyl]amino}-2′″-oxo-2′″H-pyridin-1′″-yl)pent-4″-ynoylamino]-5-(2′″″-oxopyrrolidin-3′″″-yl)pent-2-enoic Acid tert-Butyl Ester] | 106 | > 10 | > 10 | > 10 | > 10 | > 10 | > 10 | > 10 | > 10 | – | – | > 10 | – | – | > 10 | > 10 | – | – | 593 | 199 | CC50 (MRC-5 cells; line of ECHO-6): > 10 µM; CC50 (MRC-5 cells; line of ECHO-9): > 10 µM; CC50 (H1-HeLa cells; line of HRV-87): > 10 µM; EC50 [2]: 186 nM; EC50 (echovirus 6 (ECHO-6)): 147 nM |
| CCOC(=O)/C=C/[C@H](C[C@@H]1CCNC1=O)NC(=O)[C@H](CC)n1cccc(NC(=O)c2cc(C)on2)c1=O [Compound 26, trans-(2′S,3″″S,4S)-4-(2′-{3″-[(5′″-Methylisoxazole-3′″-carbonyl)amino]-2″-oxo-2″H-pyridin-1″-yl}butyrylamino)-5-(2″″-oxopyrrolidin-3″″-yl)pent-2-enoic Acid Ethyl Ester] | 15 | > 10 | > 10 | > 10 | > 10 | > 10 | > 10 | > 10 | > 10 | > 10 | > 10 | > 10 | > 10 | > 10 | > 10 | > 10 | > 10 | > 10 | 121 | 18 | CC50 (MRC-5 cells; line of ECHO-6): > 10 µM; CC50 (MRC-5 cells; line of ECHO-9): > 10 µM; CC50 (H1-HeLa cells; line of HRV-1A): > 10 µM; CC50 (H1-HeLa cells; line of HRV-10): > 10 µM; CC50 (H1-HeLa cells; line of HRV-87): > 10 µM; EC50 [2]: 36 nM; EC50 (echovirus 6 (ECHO-6)): 17 nM |
| CCOC(=O)/C=C/[C@H](C[C@@H]1CCNC1=O)NC(=O)[C@H](Cc1ccc(F)c(F)c1)n1cccc(NC(=O)c2cc(C)on2)c1=O [Compound 33, trans-(2′S,3′″″S,4S)-4-(3′-(3″,4″-Difluorophenyl)-2′-{3′″-[(5″″-methylisoxazole-3″″-carbonyl)amino]-2′″-oxo-2′″H-pyridin-1′″-yl}propionylamino)-5-(2′″″-oxopyrrolidin-3′″″-yl)pent-2-enoic Acid Ethyl Ester] | 3 | > 10 | > 10 | > 10 | > 10 | > 10 | > 10 | > 10 | > 10 | > 10 | > 10 | > 10 | > 10 | > 10 | > 10 | > 10 | > 10 | > 10 | 4 | 25 | CC50 (MRC-5 cells; line of ECHO-6): > 10 µM; CC50 (MRC-5 cells; line of ECHO-9): > 10 µM; CC50 (H1-HeLa cells; line of HRV-87): > 10 µM; EC50 [2]: 16 nM; EC50 (echovirus 6 (ECHO-6)): 15 nM |
| Cc1cc(C(=O)Nc2cccn([C@@H](Cc3ccc(F)c(F)c3)C(=O)N[C@H](/C=C/C(=O)OC(C)C)C[C@@H]3CCNC3=O)c2=O)no1 [Compound 48, trans-(2′S,3″″″S,4S)-4-[3′-(3″,4″-Difluorophenyl)-2′-(3′″-{[1″″-(5′″″-methylisoxazol-3′″″-yl)methanoyl]amino}-2″″-oxo-2″″H-pyridin-1″″-yl)propanoylamino]-5-(2″″″-oxopyrrolidin-3″″″-yl)pent-2-enoic Acid Isopropyl Ester] | 57 | > 10 | > 10 | > 10 | > 10 | > 10 | > 10 | > 10 | > 10 | > 10 | > 10 | > 10 | > 10 | > 10 | > 10 | > 10 | > 10 | > 10 | 1120 | 178 | CC50 (H1-HeLa cells; line of HRV-1A): > 10 µM; CC50 (H1-HeLa cells; line of HRV-10): > 10 µM |
